Measurements taken from patent publication US7109174B2, “Anticonvulsant derivatives useful for preventing the development of type II diabetes mellitus and syndrome X” (Ortho-McNeil Pharmaceutical, Inc., priority 2000, dated 2006).

System: male mice (ob/ob)
Test: Old male ob/ob mice: topiramate in food for 110 days; body weight, HbA1C, glucose, triglycerides, insulin, skin lesions
Assay type: in vivo
Conditions: for BG / BW / HbA1c / Insulin / Triglycerides: 110 days; for initial total incidence of skin lesions: when the study initiated (before dosing)
Method: Five- to seven-week old male mice (ob/ob) were purchased from The Jackson Laboratory (Bar Harbor, Me.). Upon arrival the mice were quarantined for five days and housed individually in wire mesh cages with 2-inch square “nestlets”. The mice were maintained at an ambient temperature of 21 to 23° C. on a 12 hour-12 hour light-dark schedule and given access to water and powdered chow ad libitum.
Topiramate was administered orally as a trace constituent in the food (0.143 to 2.54 mg/g). A precise quantity of topiramate was mixed thoroughly into a known amount of powdered lab chow using a mortar and pestle to grind the drug into the chow, after which the contents were placed in a 165 ounce lidded polyethylene tub and blended by shaking and rotating the tub. The lab chow (5002M Certified Diet Meal, manufactured in Brentwood, Mo. by Purina Mills, Inc.) was not less than 20% protein, 4.5% fat, and 64.5% CHO. The quantity of topiramate added to the food was based on the consumption of chow recorded during the previous three- or four-day period. The powdered food was put into stainless steel/aluminum feeders designed to prevent the mice from dispersing, spilling or contaminating the food. Mice that were able to disperse or soil the food were excluded from the study.
Thirty two-week old mice were randomly divided into three groups: (1) a control group in which no topiramate was added to the food, and (2) a group in which topiramate was added to the food in amounts sufficient to give a daily dose of 20 mg/kg for the entire 110-day dosing period, and (3) a group in which topiramate was added to the food in amounts sufficient to give a daily dose of 60 mg/kg for the entire dosing period.
The animals in each group were monitored for body weight, food consumption, blood glucose, HbA1C, insulin, triglycerides and physical signs of Type II diabetes mellitus or poor health. Body weight and food consumption were recorded twice-weekly on a Monday/Thursday or Tuesday/Friday schedule 8 to 12 hours into the light portion of the light-dark cycle. Body weight and food consumption were recorded using a scale designed for weights under 200 g. […] The mice were checked for skin lesions, and if present, the degree of severity was noted and recorded. If the general health of a mouse had deteriorated to a degree considered life threatening the mouse was euthanized.
Mice were allowed access to food containing topiramate until a few hours before being sacrificed by decapitation. Blood was collected from the neck wound into a parafilm-lined funnel. The blood was then transferred into beakers containing heparin. Plasma was separated from red blood cells by centrifugation. The plasma was frozen for subsequent analyses. Blood glucose levels, insulin and triglycerides were quantitated in the plasma. Glycated hemoglobin was also measured. The glycated hemoglobin required a 50 μl sample of whole blood, which was removed from the funnel before centrifugation. The plasma samples were then collected without freezing. All samples were packed in ice and shipped on the day blood was collected for overnight delivery to AniLytics, Inc. (200 Girard St., Suite 200, Gaithersburg, Md. 20877). The samples analyzed by AniLytics were assayed using standard procedures established by commercial laboratories that perform blood chemistry analyses. Statistical analysis was performed to determine if the data passed a test for normality (fit a Gaussian distribution). […] The data for a group of TPM-treated mice were compared to the control group.
Following the above described procedure, the effect of topiramate (TPM) on body weight (BW), glycated hemoglobin (HbA1C), blood glucose levels (BG), triglyceride and insulin levels in male ob/ob mice, were determined, with results as listed in Table 11. The abbreviation N represents the number of animals per group.

**Q.** Which BG (20 mg/kg daily in food, n = 6) does the source give for `CC1(C)O[C@@H]2[C@@H](CO[C@@]3(COS(N)(=O)=O)OC(C)(C)O[C@@H]23)O1` [Topiramate, 2,3:4,5-bis-O-(1-methylethylidene)-β-D-fructopyranose sulfamate] here?
**A.** 229.2 ± 46.0 mg/dL

**Q.** What about the BW (20 mg/kg daily in food, n = 6) of the same compound?
**A.** 65.6 ± 2.8 g

**Q.** What about the HbA1c (20 mg/kg daily in food, n = 6) of the same compound?
**A.** 4.98 ± 0.6%

**Q.** And the Insulin (20 mg/kg daily in food, n = 6)?
**A.** 12.2 ± 1.9 ng/mL

**Q.** What about the Triglycerides (20 mg/kg daily in food, n = 6) of the same compound?
**A.** 104 ± 6.4 mg/dL

**Q.** And the “initial total incidence of skin lesions” value (20 mg/kg group)?
**A.** 38%

**Q.** What about the “mice died or had to be euthanized” value (20 mg/kg, first 60 days of dosing) of the same compound?
**A.** four

**Q.** And the BW (60 mg/kg daily in food, n = 7)?
**A.** 67.5 ± 1.6 g

**Q.** What about the HbA1c (60 mg/kg daily in food, n = 7) of the same compound?
**A.** 3.56 ± 0.4%

**Q.** And the Insulin (60 mg/kg daily in food, n = 7)?
**A.** 11.4 ± 2.1 ng/mL

**Q.** What about the Triglycerides (60 mg/kg daily in food, n = 7) of the same compound?
**A.** 88 ± 3.2 mg/dL

**Q.** What about the BG (60 mg/kg daily in food, n = 7, P < 0.05) of the same compound?
**A.** 144.3 ± 20.0 mg/dL

**Q.** What about the “initial total incidence of skin lesions” value (60 mg/kg group) of the same compound?
**A.** 47%

**Q.** And the mice died (60 mg/kg, first 60 days of dosing)?
**A.** Two

**Q.** And the “total incidence of lesions versus control” value (60 mg/kg/day, dosing period between 62 and 110 days)?
**A.** lower than in the control group
